In patent publication US11773087B2, “GLP-1R receptor agonist compound and use thereof” (SUZHOU VINCENTAGE PHARMA CO., LTD, priority 2020, dated 2023):
Where two headings read alike, the source gives them in different places.

Legend:
[1] = molecular target: T1, human GLP-1R receptor (Homo sapiens, UniProt P43220); assay: GLP-1R cAMP assay (HTRF, HEK293 cells expressing GLP-1R); format: cell-based; settings: agonistic activity, GLP-1R HEK293 cells
T1 construct: expressed in transfected cells; host or cells: 'GLP-1R cells' (frozen vial)
Method: Test Embodiment 1: Activity Test of GLP-1R cAMP Assay
This experiment aims to verify the agonistic activity of the compound of the present disclosure on human GLP-1R receptor.
Compounds were diluted 4-fold starting at 100 μM from DMSO using Bravo for a total of 10 points.
The reference compound polypeptide GLP-1 (7-37) was diluted 4-fold starting from 500 nM in DMSO using Bravo for a total of 10 points.
b) Preparation of Cell Suspension: • 1) 1 vial of GLP-1R cells was quickly thawed in a 37° C. water bath. • 2) The suspension of the cells was transferred to 10 mL of HBSS in a 15 mL conical tube. • 3) The cells were centrifuged at 1000 rpm for 5 min at room temperature to precipitate the cells. • 4) The supernatant was gently aspirated, and being careful not to aspirate the cells. • 5) The cells were relaxed by flicking the precipitation, and then the cell precipitation was re-suspended in 10 mL of HBSS. A sterile pipette was used to move fluid up and down to remove clumps. • 6) The concentration of cells was counted and the cell viability on Vi-cell was determined. • 7) GLP-1R cells were re-suspended in the test buffer at a concentration of 2.0×E5/mL cells. • 8) 10 μL of GLP-1R cell was transferred to OptiPlate-384 well plate.
c) Transfer of Compound: • 1) 100 nL of compound was transferred to OptiPlate-384 plate using Echo Transfer. • 2) The plate was rotated at 1000 rpm for 5 seconds.
d) HTRF cAMP Analysis of Agonists: • 1) The plate was incubated at room temperature for 30 minutes before adding detection reagents. • 2) An electric multi-channel pipette was used to add 10 μL of detection reagents respectively. • 3) The 384 well plate was covered with TopSeal-A membrane and incubated for 60 min at room temperature.
TopSeal-A was unloaded and read on EnVision.

[2] = Pharmacokinetic evaluation in rats (gavage); format: in vivo; settings: rat, 10 mg/kg single oral gavage, plasma
Method: Test Embodiment 2: Pharmacokinetic Evaluation in Rats
The drug concentrations in the plasma of rats were tested at different times after the administration of the compounds by gavage using rats as test animals. The pharmacokinetic behavior of the compounds of the present disclosure in rats was studied and their pharmacokinetic characteristics were evaluated. In each group of embodiments, 3 rats with similar body weight were selected and administered orally at a dose of 10 mg/kg for a single administration. Blood was collected from animals at 15 min, 30 min, 1 h, 2 h, 4 h, 6 h, 8 h, 12 h, 24 h time points after administration. The LC-MS/MS analysis method was used to detect the content of the compound in plasma, and the lower limit of quantification of the method was 20 ng/mL. Concentration data in plasma was counted using the metabolic kinetic data analysis software WinNonlin 7.0, and the pharmacokinetic parameters were calculated using the non-compartmental analysis (NCA), as shown in Table 2 below.
Drug configuration: A certain amount of drug was taken, added with 2% Klucel LF+0.1% Tween 80 aqueous solution to prepare a clear solution or a uniform suspension.
Administration: Rats were administered by gavage after overnight fasting at a dose of 10 mg/kg.
Operation: Rats were administered by gavage, and blood was collected from the tail vein before administration and 15 min, 30 min, 1 h, 2 h, 4 h, 6 h, 8 h, 12 h, 24 h after administration, placed in heparinized sample tubes, centrifuged at 4° C., 3500 rpm for 10 min to separate plasma, stored at −20° C., and fed 2 hours after administration.
Determination of the content of test compounds in rat plasma after drug administration by gavage: 50 μL of plasma samples were thawed at room temperature, added with 130 μL of internal standard working solution (1000 ng/mL, acetonitrile, tolbutamide), vortexed for about 1 min and then centrifuged for 10 min at 4° C. and 13000 rpm. 50 μL of supernatant was mixed with 100 μL of 50% acetonitrile in water, and then the sample was injected for LC/MS/MS analysis.

[3] = Pharmacokinetic evaluation of cynomolgus monkey (IV and oral); format: in vivo, cynomolgus monkeys; settings: for AUC(0-t): read-out: AUC0-24 h
Method: Test Embodiment 3: Pharmacokinetic Evaluation of Cynomolgus Monkey
The drug concentrations in the plasma of cynomolgus monkeys were tested at different times after intravenous injection and oral administration of the compounds using cynomolgus monkeys as test animals. The pharmacokinetic behavior of the compounds of the present disclosure in cynomolgus monkeys was studied and their pharmacokinetic characteristics were evaluated. In each group of embodiments, 2 cynomolgus monkeys with similar body weight were selected, administered at a dose of 1 mg/kg by intravenous injection and at a dose of 50 mg/kg by oral administration for a single administration.
Age of cynomolgus monkeys at the time of administration: about 2-4 years old; body weight: 3.0-4.6 kg at the beginning of administration; 4 monkeys; sex: male.
Intravenous group: The final concentration of 0.5 mg/mL was prepared for intravenous administration, and the preparation solvent was 5% DMSO+45% PEG400+50% water, and the preparation was in a clarified solution.
Oral group: The final concentration of 10 mg/mL was prepared for oral administration, and the preparation solvent was 5% DMSO+45% PEG400+50% water, and the preparation was in homogeneous suspension.
Blood was collected from animals at 5 min, 15 min, 30 min, 1 h, 2 h, 4 h, 7 h, 12 h, 24 h time points after administration. The LC-MS/MS analysis method was used to detect the content of the compound in plasma, and the lower limit of quantification of the method was 20 ng/mL. Concentration data in plasma was counted using the metabolic kinetic data analysis software WinNonlin 7.0, and the pharmacokinetic parameters were calculated using the non-compartmental analysis (NCA), as shown in Table 3 below.
Determination of the content of test compounds in the plasma of cynomolgus monkeys after drug administration: After blood samples were collected, placed in a marked ice-bath centrifuge tube, and rapidly centrifuged to separate the plasma. Centrifugation conditions: 4000 rpm, 10 minutes, 4° C., and plasma was stored at −40° C. or less for testing.

[4] = obese patients, cited from earlier work

T1 sequence (P43220 24-463): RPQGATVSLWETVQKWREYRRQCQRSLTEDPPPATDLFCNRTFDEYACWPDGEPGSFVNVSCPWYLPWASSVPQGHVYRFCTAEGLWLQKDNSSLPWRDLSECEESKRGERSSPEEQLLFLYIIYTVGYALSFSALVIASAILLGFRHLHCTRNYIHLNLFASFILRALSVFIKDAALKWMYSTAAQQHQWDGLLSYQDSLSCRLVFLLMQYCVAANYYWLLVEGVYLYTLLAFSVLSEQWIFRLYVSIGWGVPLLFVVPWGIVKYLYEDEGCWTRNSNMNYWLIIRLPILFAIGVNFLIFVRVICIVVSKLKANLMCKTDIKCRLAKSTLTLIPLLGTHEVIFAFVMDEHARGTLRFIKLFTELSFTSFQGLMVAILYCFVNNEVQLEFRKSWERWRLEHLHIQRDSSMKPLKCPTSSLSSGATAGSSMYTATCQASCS

EC50 [1]	AUC(0-inf) [2]	Cmax [2]	Tmax [2]	half-life [2]	F ([3]; 50 mg/kg PO vs 1 mg/kg IV, oral bioavailability)	Cmax ([3]; male, 1 mg/kg IV, plasma)	Tmax ([3]; male, 1 mg/kg IV, plasma)	clearance ([3]; male, 1 mg/kg IV, plasma)	half-life ([3]; male, 1 mg/kg IV, plasma)	AUC(0-t) ([3]; male, 1 mg/kg IV, plasma)	Cmax ([3]; male, 50 mg/kg PO, plasma)	Tmax ([3]; male, 50 mg/kg PO, plasma)	half-life ([3]; male, 50 mg/kg PO, plasma)	concentration at 24 h ([3]; male, 50 mg/kg PO, plasma, 24 h, read-out: C24 h)	AUC(0-t) ([3]; male, 50 mg/kg PO, plasma)	Compound	patients with ≥5% weight loss ([4]; 2.4 mg group, 68 weeks)	decrease of mean baseline body weight ([4]; 2.4 mg, 68 weeks of treatment, baseline 105.3 kg)
0.9 nM	1030 ng·h/mL	1160 ng/mL	0.25 h	2.58 h	51.2%	1590 ng/mL	0.083 h	19.2 mL/min/kg	0.98 h	898 ng·h/mL	2440 ng/mL	2.5 h	22.6 h	597 ng/mL	23000 ng·h/mL	O=C(O)c1ccc2nc(CN3CCC(c4ccccc4OCc4ccc(Cl)cc4F)CC3)n(C[C@@H]3CCO3)c2c1 [Compound 3]	–	–
–	–	–	–	–	–	–	–	–	–	–	–	–	–	–	–	semaglutide	86.4%	14.9%
